Laboratory results published in the C3SDB collision cross section collection.
“And” between values parts separate entries of the source, which are not always exact repeats. Equal entries are not always repeated.

Conditions: instrument: DT, single field, calibrated with ESI Low Concentration Tuning Mix (Agilent)

collision cross section (N2) ([M+Na-2H]-) | collision cross section (N2) ([M+Na]+) | collision cross section (N2) ([M-H]-) | collision cross section (N2) ([M+H]+) | collision cross section (N2) ([M+K]+) | Structure (SMILES) | collision cross section (N2) ([M+H2O-H]-)
147.2 Å² | 140.5 Å² | 126.3 Å² | – | – | O=P(O)(O)OC(CO)CO [BETA-GLYCEROPHOSPHATE] | –
– | 147.6 Å² and 147.7 Å² | 142.3 Å² and 142.5 Å² and 151.5 Å² | 150.1 Å² and 150.3 Å² | – | N[C@@H](Cc1c[nH]c2ccccc12)C(=O)O [TRYPTOPHAN] | –
– | – | 143.5 Å² | – | – | COc1cc(C(O)C(=O)O)ccc1O (configuration not stated) [3-METHOXY-4-HYDROXYMANDELATE] | –
– | 132.4 Å² | – | – | – | NC(=O)NCCC(=O)O [UREIDOPROPIONATE] | –
– | 181 Å² and 188.6 Å² and 188.8 Å² | 171.8 Å² and 172 Å² | 172.6 Å² and 176.8 Å² | – | Nc1ncnc2c1ncn2[C@@H]1O[C@@H]2COP(=O)(O)O[C@H]2[C@H]1O [CYCLIC AMP] | –
– | – | – | 132.9 Å² | – | C[N+](C)(C)C[C@H](O)CC(=O)[O-] [L-CARNITINE] | –
– | – | 118.6 Å² and 118.7 Å² | – | – | N[C@@H](CC(=O)O)C(=O)O [ASPARTATE] | –
177.5 Å² and 185.6 Å² | 185.2 Å² | 180.8 Å² | 188.5 Å² | – | Nc1nc(=O)c2ncn([C@H]3C[C@H](O)[C@@H](COP(=O)(O)OP(=O)(O)O)O3)c2[nH]1 [DGDP] | –
– | 177 Å² | – | 171.4 Å² | – | Nc1ncnc2c1ncn2[C@@H]1O[C@H](COP(=O)(O)O)[C@@H](O)[C@H]1O [ADENOSINE MONOPHOSPHATE] | –
– | – | 172.7 Å² | – | – | O=C(/C=C/c1ccc(O)c(O)c1)O[C@@H](Cc1ccc(O)c(O)c1)C(=O)O [ROSMARINATE] | –
227.9 Å² | 218.1 Å² | 224 Å² | 210.5 Å² | – | CC(=O)N[C@H]1[C@H](OP(=O)(O)OP(=O)(O)OC[C@H]2O[C@@H](n3ccc(=O)[nH]c3=O)[C@H](O)[C@@H]2O)O[C@H](CO)[C@@H](O)[C@@H]1O [URIDINE DIPHOSPHATE-N-ACETYLGLUCOSAMINE] | –
– | 286.3 Å² | – | – | – | CCCCCCCCCCCCCCCC(=O)O[C@H]1CC[C@@]2(C)C(=CC[C@H]3[C@@H]4CC[C@H]([C@H](C)CCCC(C)C)[C@@]4(C)CC[C@@H]32)C1 [CHOLESTERYL PALMITATE] | –
– | 150.2 Å² | 130.6 Å² | 135.5 Å² | 147.4 Å² | Cc1ncc(CO)c(C(=O)O)c1O [4-PYRIDOXATE] | –
– | 135.5 Å² | 133.5 Å² and 133.7 Å² | 131.2 Å² and 131.4 Å² | – | NCCCC[C@H](N)C(=O)O [LYSINE] | –
– | 146.2 Å² | 136 Å² | – | – | COc1cc(CC(=O)O)ccc1O [HOMOVANILLATE] | –
– | 156.4 Å² | 148.9 Å² | – | – | O=c1ccn([C@H]2C[C@H](O)[C@@H](CO)O2)c(=O)[nH]1 [DEOXYURIDINE] | –
193.5 Å² | 204 Å² and 204.2 Å² | 188.2 Å² and 188.3 Å² | 196.6 Å² and 196.9 Å² | – | Nc1ncnc2c1ncn2[C@@H]1O[C@H](COP(=O)(O)OP(=O)(O)OP(=O)(O)O)[C@@H](O)[C@H]1O [ADENOSINE TRIPHOSPHATE] | –
148.8 Å² | 155 Å² | 152.5 Å² | 144 Å² | 155.8 Å² | C[C@@H]1NC(=O)N[C@@H]1CCCCCC(=O)O [DETHIOBIOTIN] | –

Structure (SMILES) | collision cross section (N2) ([M+Na-2H]-) | collision cross section (N2) ([M+Na]+) | collision cross section (N2) ([M-H]-) | collision cross section (N2) ([M+H]+) | collision cross section (N2) ([M+K]+) | collision cross section (N2) ([M+H2O-H]-)
CCCCC(CC)COC(=O)c1ccccc1C(=O)OCC(CC)CCCC (configuration not stated) [BIS(2-ETHYLHEXYL)PHTHALATE] | – | – | – | 212.2 Å² | – | 203 Å²
